Reference: PMC8667612 (Journal of medicinal chemistry, 2021)
“And” between values parts separate entries of the source, which are not always exact repeats. Equal values may be shown once.

Tests used:
N. fowleri CYP51 [1] = target: T1, N. fowleri CYP51 (Naegleria fowleri, UniProt A0A6A5BCR7, E4K/I5A/S2A, form not given); conditions: read-out: IC50 (1 h reaction)
N. fowleri CYP51 [2] = target: T1, N. fowleri CYP51; format: biochemical; conditions: 0.5 μM P450, 60 s at 37 °C, sterol 3–50 μM

Structure (SMILES): O=C(N[C@@H](Cn1ccnc1)c1ccc(-c2ccc(F)cc2)cc1F)c1ccc(-c2nnc(-c3ccccc3)o2)cc1 [VFV, (R)-N-(1-(3,4’-difluoro-[1,1’-biphenyl]-4-yl)-2-(1H-imidazol-1-yl)-ethyl)-4-(5-phenyl-1,3,4-oxadiazol-2-yl)benzamide]
- IC50 (N. fowleri CYP51 [1]): 0.68 µM

Structure (SMILES): C=C(CC[C@@H](C)[C@H]1CC[C@@]2(C)C3=C(CC[C@]12C)[C@@]1(C)CC[C@H](O)[C@@H](C)[C@@H]1CC3)C(C)C [obtusifoliol]
- Km (N. fowleri CYP51 [2]): 8 ± 1 µM

Structure (SMILES): CC(C)=CCC[C@@H](C)[C@H]1CC[C@@]2(C)C3=C(CC[C@]12C)[C@@]1(C)CC[C@H](O)C(C)(C)[C@@H]1CC3 [lanosterol]
- Km (N. fowleri CYP51 [2]): 48 ± 10 µM

Structure (SMILES): C[C@@H](c1nc(-c2ccc(C#N)cc2)cs1)[C@](O)(Cn1cncn1)c1cc(F)ccc1F [isavuconazole, reference compound]
- IC50 (N. fowleri CYP51 [1]): 0.96 µM

Structure (SMILES): O=C(N[C@@H](Cn1ccnc1)c1ccc(-c2ccc(F)cc2)cc1Cl)c1ccc(-c2nnc(-c3ccccc3)o2)cc1 [VFV-Cl, (R)-N-(1-(3-chloro-4’-fluoro-[1,1’-biphenyl]-4-yl)-2-(1H-imidazol-1-yl)ethyl)-4-(5-phenyl-1,3,4-oxadiazol-2-yl)benzamide]
- IC50 (N. fowleri CYP51 [1]): 5.9 µM and 5.94 µM
